Test results taken from PubChem BioAssay (NCI).
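Briefly, cells in 96-well plates were exposed to five compound concentrations for 48 h, and endpoints were estimated by linear interpolation. The concentration for 50% growth inhibition is given as GI50. TGI: total growth inhibition.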

Tests used:
Assay in all cases: NCI tumour cell line growth inhibition, 48 h
[1] = test system: HOP-92 NSCLC
[2] = test system: SNB-19 CNS
[3] = test system: RPMI-8226 leukemia
[4] = test system: ACHN renal
[5] = test system: A498 renal
[6] = test system: NCI-H226 lung
[7] = test system: 786-0 renal
[8] = test system: MOLT-4 leukemia
[9] = test system: DU-145 prostate
[10] = test system: NCI/ADR-RES ovarian
[11] = test system: KM12 colon
[12] = test system: OVCAR-8 ovarian
[13] = test system: SK-MEL-28 melanoma
[14] = test system: HS 578T breast
[15] = test system: UACC-62 melanoma
[16] = test system: SK-OV-3 ovarian
[17] = test system: RXF 393 renal
[18] = test system: MDA-MB-435
[19] = test system: SNB-75 CNS
[20] = test system: SF-539 CNS
[21] = test system: MCF7 breast
[22] = test system: SN12C renal
[23] = test system: NCI-H522 lung
[24] = test system: IGROV1 ovarian
[25] = test system: TK-10 renal
[26] = test system: CAKI-1 renal
[27] = test system: BT-549 breast
[28] = test system: U251 CNS
[29] = test system: T-47D breast
[30] = test system: K-562 leukemia
[31] = test system: LOX IMVI melanoma
[32] = test system: HCC-2998 colon
[33] = test system: SF-268 CNS
[34] = test system: UACC-257 melanoma
[35] = test system: HCT-15 colon
[36] = test system: A549 NSCLC
[37] = test system: PC-3 prostate
[38] = test system: OVCAR-4 ovarian
[39] = test system: HT29 colon
[40] = test system: UO-31 renal
[41] = test system: NCI-H23 lung
[42] = test system: MALME-3M melanoma
[43] = test system: M14 melanoma
[44] = test system: SK-MEL-5 melanoma
[45] = test system: SF-295 CNS
[46] = test system: CCRF-CEM leukemia
[47] = test system: SR leukemia
[48] = test system: NCI-H460 lung
[49] = test system: SK-MEL-2 melanoma
[50] = test system: HCT-116 colon
[51] = test system: HOP-62 NSCLC
[52] = test system: SW-620 colon
[53] = test system: MDA-MB-231 breast
[54] = test system: COLO 205 colon
[55] = test system: OVCAR-5 ovarian
[56] = test system: EKVX NSCLC
[57] = test system: HL-60(TB) leukemia
[58] = test system: OVCAR-3 ovarian

SMILES: CC(C)(C)c1ccc(S(=O)(=O)N[C@H]2CC[C@H]3[C@@H]4CCc5cc(OS(=O)(=O)O)ccc5[C@H]4CC[C@]23C)cc1
- GI50 [1]: 2.11 µM
- TGI [1]: 5.31 µM
- GI50 [2]: 3.49 µM
- TGI [2]: 13.8 µM
- GI50 [3]: 2.55 µM
- TGI [3]: 7.37 µM
- GI50 [4]: 2.01 µM
- TGI [4]: 4.24 µM
- GI50 [5]: 1.5 µM
- TGI [5]: 3.04 µM
- GI50 [6]: 1.59 µM
- TGI [6]: 3.06 µM
- GI50 [7]: 2.5 µM
- TGI [7]: 6.3 µM
- GI50 [8]: 2.65 µM
- TGI [8]: 9.55 µM
- GI50 [9]: 5.72 µM
- TGI [9]: 18 µM
- GI50 [10]: 2.39 µM
- TGI [10]: 7.03 µM
- GI50 [11]: 2.08 µM
- TGI [11]: 4.01 µM
- GI50 [12]: 2.79 µM
- TGI [12]: 8.46 µM
- GI50 [13]: 1.8 µM
- TGI [13]: 3.38 µM
- GI50 [14]: 2.69 µM
- TGI [14]: 7.27 µM
- GI50 [15]: 1.81 µM
- TGI [15]: 3.72 µM
- GI50 [16]: 2.92 µM
- TGI [16]: 8.54 µM
- GI50 [17]: 1.6 µM
- TGI [17]: 3.49 µM
- GI50 [18]: 2.32 µM
- TGI [18]: 5.9 µM
- GI50 [19]: 2.03 µM
- TGI [19]: 6.11 µM
- GI50 [20]: 1.8 µM
- TGI [20]: 3.34 µM
- GI50 [21]: 2.38 µM
- TGI [21]: 5.9 µM
- GI50 [22]: 1.81 µM
- TGI [22]: 3.58 µM
- GI50 [23]: 1.93 µM
- TGI [23]: 5.15 µM
- GI50 [24]: 3.63 µM
- TGI [24]: 10.9 µM
- GI50 [25]: 3.69 µM
- TGI [25]: 12.4 µM
- GI50 [26]: 2.77 µM
- TGI [26]: 8.89 µM
- GI50 [27]: 2.1 µM
- TGI [27]: 4.2 µM
- GI50 [28]: 1.68 µM
- TGI [28]: 3.34 µM
- GI50 [29]: 2.82 µM
- TGI [29]: 9.96 µM
- GI50 [30]: 3.22 µM
- TGI [30]: 13.6 µM
- GI50 [31]: 1.7 µM
- TGI [31]: 3.11 µM
- GI50 [32]: 4.09 µM
- TGI [32]: 13.1 µM
- GI50 [33]: 3.14 µM
- TGI [33]: 11.5 µM
- GI50 [34]: 2.75 µM
- TGI [34]: 9.11 µM
- GI50 [35]: 1.79 µM
- TGI [35]: 3.59 µM
- GI50 [36]: 2.83 µM
- TGI [36]: 10.2 µM
- GI50 [37]: 4.19 µM
- TGI [37]: 17.5 µM
- GI50 [38]: 2.49 µM
- TGI [38]: 9.92 µM
- GI50 [39]: 2.19 µM
- TGI [39]: 4.57 µM
- GI50 [40]: 1.8 µM
- TGI [40]: 4.4 µM
- GI50 [41]: 2.6 µM
- TGI [41]: 9.15 µM
- GI50 [42]: 2.49 µM
- TGI [42]: 6.05 µM
- GI50 [43]: 2.07 µM
- TGI [43]: 4.31 µM
- GI50 [44]: 1.64 µM
- TGI [44]: 2.99 µM
- GI50 [45]: 2.51 µM
- TGI [45]: 6.76 µM
- GI50 [46]: 2.88 µM
- TGI [46]: 9.25 µM
- GI50 [47]: 2.45 µM
- TGI [47]: 7.02 µM
- GI50 [48]: 2.19 µM
- TGI [48]: 4.79 µM
- GI50 [49]: 2.46 µM
- TGI [49]: 5.86 µM
- GI50 [50]: 1.79 µM
- TGI [50]: 3.35 µM
- GI50 [51]: 2.87 µM
- TGI [51]: 7.81 µM
- GI50 [52]: 3.37 µM
- TGI [52]: 12.5 µM
- GI50 [53]: 1.94 µM
- TGI [53]: 4.26 µM
- GI50 [54]: 1.83 µM
- TGI [54]: 3.29 µM
- GI50 [55]: 1.88 µM
- TGI [55]: 3.63 µM

SMILES: CC(C)C[P+](c1ccccc1)(c1ccccc1)c1ccccc1
- TGI [1]: 26.3 µM
- TGI [2]: > 100 µM
- TGI [3]: 0.033 µM
- TGI [4]: > 100 µM
- TGI [5]: > 100 µM
- TGI [6]: > 100 µM
- TGI [7]: > 100 µM
- TGI [8]: > 100 µM
- TGI [9]: > 100 µM
- TGI [10]: > 100 µM
- TGI [11]: 20.7 µM
- TGI [13]: > 100 µM
- TGI [14]: > 100 µM
- TGI [15]: > 100 µM
- TGI [16]: 87.4 µM
- TGI [56]: 30 µM
- TGI [18]: 25 µM
- TGI [19]: > 100 µM
- TGI [20]: > 100 µM
- TGI [21]: > 100 µM
- TGI [22]: > 100 µM
- TGI [23]: > 100 µM
- TGI [24]: > 100 µM
- TGI [25]: 66.5 µM
- TGI [26]: 37.8 µM
- TGI [27]: > 100 µM
- TGI [28]: > 100 µM
- TGI [57]: 24 µM
- TGI [29]: > 100 µM
- TGI [30]: > 100 µM
- TGI [31]: > 100 µM
- TGI [32]: > 100 µM
- TGI [33]: > 100 µM
- TGI [58]: 84.6 µM
- TGI [34]: 4.19 µM
- TGI [35]: > 100 µM
- TGI [36]: > 100 µM
- TGI [38]: > 100 µM
- TGI [39]: > 100 µM
- TGI [40]: > 100 µM
- TGI [41]: > 100 µM
- TGI [42]: 83.6 µM
- TGI [43]: > 100 µM
- TGI [44]: 18.2 µM
- TGI [45]: 90.5 µM
- TGI [46]: 11.1 µM
- TGI [48]: > 100 µM
- TGI [49]: 41.7 µM
- TGI [50]: > 100 µM
- TGI [51]: > 100 µM
- TGI [52]: > 100 µM
- TGI [53]: > 100 µM
- TGI [54]: 15.7 µM
- TGI [55]: > 100 µM
